The values below come from PMC7838058 (Acta Pharmaceutica Sinica. B, 2020).

The structures appear in SMILES notation.

For data set [1], the system named is SD rats. Particulars: 100 mg/kg by gavage every 8 h for 7 days, means ± SEM, n = 8.
A short description of data set [2]: in vitro. Particulars: human, Caco-2.

Consider `CC(=O)Nc1ccc(NC(=O)c2ccc([N+](=O)[O-])o2)cc1` [1H, N-(4-Acetamidophenyl)-5-nitrofuran-2-carboxamide], for which the “Serum Cl” value in data set [1] was found to be 101.7 ± 1.3 mmol/L.
Take `COCCc1ccc(OCC(O)CNC(C)C)cc1` (centres unmarked) [metoprolol]: the apical-to-basolateral permeability (Papp A→B) at 120 min, 2 μmol/L in data set [2] came to 13.1 ± 0.65 ×10⁻⁶ cm/s.
